Experimental data reported in patent US20240208940A1, “SMALL-MOLECULE INHIBITORS FOR BETA-CATENIN/BCELL LYMPHOMA 9 PROTEIN-PROTEIN INTERACTION” (H. LEE MOFFITT CANCER CENTER AND RESEARCH INSTITUTE, INC., priority 2021, published 2024).
pIC50, pKi: −log10 of the molar value. Structures can show the parent of a compound that is named as a salt.

Biological target: β-catenin/BCL9 PPI (Homo sapiens (Human), UniProt P35222)
Experiment: AlphaScreen competitive inhibition assay of β-catenin/BCL9 PPI
Type: binding
Details: mean ± standard deviation (n = 3); for pKi: derived from IC50, read-out: Ki ± SD
Protocol: AlphaScreen Assays of β-Catenin and BCL9 Interaction. Experiments were performed in white opaque 384-well plates from PerkinElmer (Waltham, MA), and the samples were read on a Biotek Synergy 2 plate reader (Winooski, VT) with excitation at 680 nm and emission at 570 nm. The standard AlphaScreen protocol was used with a sensitivity setting of 200. All dilutions were made in 1× assay buffer containing 25 mM Hepes (pH 7.4), 100 mM NaCl, 0.01% Triton X-100 and 0.1% BSA to minimize nonspecific interactions. For the competitive inhibition assays of β-catenin/BCL9 PPI, the negative control (equivalent to 0% inhibition) refers to 5.0 nM biotinylated BCL9, 50 nM His6-tagged β-catenin, and 10 μg/mL donor and acceptor beads in a final volume of 25 μL assay buffer, but no tested inhibitor present. The positive control (equivalent to 100% inhibition) refers to 5.0 nM biotinylated BCL9 and 10 μg/mL donor and acceptor beads in a final volume of 25 μL assay buffer.
For the β-catenin/BCL9 assay, 5 nM biotinylated BCL9 and 50 nM His6-tagged β-catenin were incubated in assay buffer for 30 min. Different concentrations of the tested inhibitor were added and incubated in 20 μL assay buffer for another 1 h. All of the assay plates were covered and gently mixed on an orbital shaker. The donor and acceptor beads were then added to the plates to a final concentration of 10 μg/mL in 25 μL assay buffer. The mixture was incubated for 1 h before detection. The IC50 value was determined by nonlinear least-square analysis of GraphPad Prism 8.0. The Ki values were derived from the IC50 values using a method reported by Wang and coworkers.^65 The equation used is Ki=[I]50/([L]50/Kd+[P]0/Kd+1) (Where [I]50 denotes the concentration of the free inhibitor at 50% inhibition, [L]50 is the concentration of the free labeled ligand at 50% inhibition, [P]0 is the concentration of the free protein at 0% inhibition, and Kd is the dissociation constant of the protein-ligand complex). All of the experiments were performed in triplicate and carried out in the presence of 1% DMSO for small-molecule inhibitors. Each compound was assayed at least by three independent experiments. The results were expressed as mean±standard deviation.

Sequence of β-catenin/BCL9 PPI (P35222 whole entry): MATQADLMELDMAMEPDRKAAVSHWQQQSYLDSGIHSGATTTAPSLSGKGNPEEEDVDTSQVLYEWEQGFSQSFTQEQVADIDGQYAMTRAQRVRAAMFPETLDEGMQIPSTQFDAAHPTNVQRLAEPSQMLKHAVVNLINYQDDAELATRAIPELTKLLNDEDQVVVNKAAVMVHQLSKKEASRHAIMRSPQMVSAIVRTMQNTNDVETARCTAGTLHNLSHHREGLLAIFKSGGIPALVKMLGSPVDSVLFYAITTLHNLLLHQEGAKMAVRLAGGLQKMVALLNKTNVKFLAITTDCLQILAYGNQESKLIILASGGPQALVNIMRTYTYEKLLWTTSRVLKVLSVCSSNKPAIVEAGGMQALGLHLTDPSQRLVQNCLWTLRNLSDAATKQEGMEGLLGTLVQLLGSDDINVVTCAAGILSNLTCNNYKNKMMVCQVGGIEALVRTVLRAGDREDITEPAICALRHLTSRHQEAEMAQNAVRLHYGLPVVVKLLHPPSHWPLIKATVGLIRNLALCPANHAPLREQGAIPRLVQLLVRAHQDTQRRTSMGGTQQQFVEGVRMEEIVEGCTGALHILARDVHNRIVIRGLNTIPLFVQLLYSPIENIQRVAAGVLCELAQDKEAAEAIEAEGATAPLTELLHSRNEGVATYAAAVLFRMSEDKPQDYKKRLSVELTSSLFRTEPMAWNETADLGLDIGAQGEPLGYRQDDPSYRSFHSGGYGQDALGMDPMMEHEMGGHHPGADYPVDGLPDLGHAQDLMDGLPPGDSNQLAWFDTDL

SMILES	pKi	pIC50
O=C(c1ccc(O[C@H]2CCNC2)c(-c2ccccc2)c1)N1CCC(Oc2cc(F)cc(N3CCNCC3)c2)CC1 [Compound 8, (S)-(4-(3-fluoro-5-(piperazin-1-yl)phenoxy)piperidin-1-yl)(6-(pyrrolidin-3-yloxy)-[1,1′-biphenyl]-3-yl)methanone dihydrochloride]	≥ 4.30	≥ 4.30
CC(C)(C)C1CCC(c2cc(C(=O)N3CCC(Oc4cc(N5CCNCC5)ccc4C(N)=O)CC3)ccc2O[C@H]2CCNC2)CC1 (stereo in doubt) [Compound 41, cis- and trans-(S)-2-((1-(3-(4-(tert-butyl)cyclohexyl)-4-(pyrrolidin-3-yloxy)benzoyl)piperidin-4-yl)oxy)-4-(piperazin-1-yl)benzamide dihydrochloride]	≥ 4.70	≥ 4.70
CC(C)(C)C1CCC(c2cc(C(=O)N3CCC(Oc4cc(Cl)cc(N5CCNCC5)c4)CC3)ccc2O[C@H]2CCNC2)CC1 (stereo in doubt) [Compound 30, cis- and trans-(S)-(3-(4-(tert-butyl)cyclohexyl)-4-(pyrrolidin-3-yloxy)phenyl)(4-(3-chloro-5-(piperazin-1-yl)phenoxy)piperidin-1-yl)methanone dihydrochloride]	≥ 5.30	≥ 5.30
CC(C)(C)C1CCC(c2cc(C(=O)N3CCC(Oc4cc(N5CCNCC5)cc(C(F)(F)F)c4)CC3)ccc2O[C@H]2CCNC2)CC1 (stereo in doubt) [Compound 31, cis- and trans-(S)-(3-(4-(tert-butyl)cyclohexyl)-4-(pyrrolidin-3-yloxy)phenyl)(4-(3-(piperazin-1-yl)-5-(trifluoromethyl)phenoxy)piperidin-1-yl)methanone dihydrochloride]	> 5.30	≥ 5.30
CC(C)(C)C1CCC(c2cc(C(=O)N3CCC(Oc4cc(C#N)cc(N5CCNCC5)c4)CC3)ccc2O[C@H]2CCNC2)CC1 (stereo in doubt) [Compound 32, cis- and trans-(S)-3-((1-(3-(4-(tert-butyl)cyclohexyl)-4-(pyrrolidin-3-yloxy)benzoyl)piperidin-4-yl)oxy)-5-(piperazin-1-yl)benzonitrile dihydrochloride]	≥ 5.00	≥ 5.00
O=C(c1ccc(O[C@H]2CCNC2)c(C2CCCCC2)c1)N1CCC(Oc2cc(F)cc(N3CCC4(CCNC4)C3)c2)CC1 (stereo partly drawn) [Compound 5, (3-cyclohexyl-4-(((S)-pyrrolidin-3-yl)oxy)phenyl)(4-(3-fluoro-5-(2,7-diazaspiro[4.4]nonan-2-yl)phenoxy)piperidin-1-yl)methanone ditrifluoroacetic acid]	≥ 4.40	≥ 4.40
CC(C)(C)[C@H]1CC[C@H](c2cc(C(=O)N3CCC(Oc4cc(N5CCNCC5)ccc4C#N)CC3)ccc2O[C@H]2CCNC2)CC1 [Compound 45]	≥ 5.40	≥ 5.40
CC(C)(C)C1CCC(c2cc(C(=O)N3CCC(Oc4cc(N5CCNCC5)ccc4F)CC3)ccc2O[C@H]2CCNC2)CC1 (stereo in doubt) [Compound 34, cis- and trans-(S)-(3-(4-(tert-butyl)cyclohexyl)-4-(pyrrolidin-3-yloxy)phenyl)(4-(2-fluoro-5-(piperazin-1-yl)phenoxy)piperidin-1-yl)methanone dihydrochloride]	≥ 5.00	≥ 5.00
CC(C)(C)C1CCC(c2cc(C(=O)N3CCC(Oc4cc(N5CCNCC5)cc(F)c4F)CC3)ccc2O[C@H]2CCNC2)CC1 (stereo in doubt) [Compound 35, cis- and trans-(S)-(3-(4-(tert-butyl)cyclohexyl)-4-(pyrrolidin-3-yloxy)phenyl)(4-(2,3-difluoro-5-(piperazin-1-yl)phenoxy)piperidin-1-yl)methanone dihydrochloride]	≥ 5.30	≥ 5.30
O=C(c1ccc(O[C@H]2CCNC2)c(-c2ccc3[nH]ncc3c2)c1)N1CCC(Oc2cc(F)cc(N3CCNCC3)c2)CC1 [Compound 14, (S)-(3-(1H-indazol-5-yl)-4-(pyrrolidin-3-yloxy)phenyl)(4-(3-fluoro-5-(piperazin-1-yl)phenoxy)piperidin-1-yl)methanone dihydrochloride]	≥ 5.00	≥ 5.00
